14 compounds from PubChem BioAssay (NCI) can be followed below.

Where “and” joins values, the source holds several entries; their conditions need not be identical. Equal entries are not always repeated.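 How tested: cells in 96-well plates exposed to compound for 48 hours at five concentrations. The concentration for 50% growth inhibition is given as GI50. TGI: total growth inhibition.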

Test systems include K-562 leukemia; M14 melanoma; SK-MEL-5 melanoma; UACC-62 melanoma; HL-60(TB) leukemia; OVCAR-4 ovarian; SK-MEL-28 melanoma; T-47D breast; NCI-H460 lung; SK-OV-3 ovarian; CCRF-CEM leukemia.
What all share (experiment): DTP human tumour cell line panel, 48 h

Consider `Cc1cccc(N=NC(=O)NNc2cccc(C)c2C)c1C`, for which the TGI in the assay with K-562 leukemia was above 100 µM; in the assay with M14 melanoma it was above 100 µM; in the assay with SK-MEL-5 melanoma, above 100 µM; in the assay with UACC-62 melanoma it was above 100 µM; with HL-60(TB) leukemia, 57.1 µM; in the assay with OVCAR-4 ovarian, above 100 µM. For the same compound, the TGI in the assay on SK-MEL-28 melanoma, in the assay on T-47D breast and in the assay on NCI-H460 lung was above 100 µM throughout.
Regarding `CCOC(=O)C(=Cc1[nH]c2ccccc2c1-c1c[nH]c2ccccc12)C(=O)OCC`, the TGI in the assay with K-562 leukemia came to 26.6 µM; in the assay on M14 melanoma, 21.7 µM; in the assay with SK-MEL-5 melanoma, 29.2 µM; in the assay on SK-OV-3 ovarian, 49 µM; in the assay on UACC-62 melanoma it was 19.4 µM; with OVCAR-4 ovarian it was 20.3 µM. For the same compound, in the assay with NCI-H460 lung, the TGI amounted to 29.8 µM.
As for `COc1ccc(C2OC[C@H]3O[C@@H](OCc4ccccc4)[C@H](O)[C@@H](O)[C@@H]3O2)cc1` (some centres undefined), the TGI in the assay with CCRF-CEM leukemia, in the assay with K-562 leukemia, in the assay with SK-MEL-5 melanoma, in the assay on SK-OV-3 ovarian, in the assay on UACC-62 melanoma and in the assay with OVCAR-4 ovarian was above 100 µM in each case. Besides, the TGI in the assay with SK-MEL-28 melanoma and in the assay with NCI-H460 lung was above 100 µM each time.
Consider `COCN(CCC1=CCCCC1)C(=O)OC`, for which the TGI in the assay on K-562 leukemia, in the assay on M14 melanoma, in the assay on SK-MEL-5 melanoma, in the assay on SK-OV-3 ovarian, with UACC-62 melanoma and in the assay on OVCAR-4 ovarian was above 100 µM in each case. The TGI with SK-MEL-28 melanoma, with T-47D breast and with NCI-H460 lung was above 100 µM throughout.
With `O=C1C(CN2CCCCC2)CCC1CN1CCCCC1` (centres undefined), the TGI in the assay on CCRF-CEM leukemia is 3.97 µM; with M14 melanoma, 32 µM; with SK-MEL-5 melanoma, above 69.3 µM; in the assay with SK-OV-3 ovarian, above 100 µM; with UACC-62 melanoma, 32.3 µM; in the assay with SK-MEL-28 melanoma it was 41.2 µM. Also, the figures for the TGI with T-47D breast and in the assay with NCI-H460 lung were 36.5 µM and above 100 µM, respectively.
`CC(=O)OCC12C(=O)C[C@@H](C)C3(CC(c4ccoc4)OC3=O)C1CCC(OC(C)=O)C21CO1` (some centres undefined): the TGI in the assay with K-562 leukemia, in the assay on M14 melanoma, in the assay on SK-MEL-5 melanoma, in the assay with UACC-62 melanoma, in the assay on HL-60(TB) leukemia and in the assay with OVCAR-4 ovarian was above 100 µM in each case. Also, the TGI in the assay with SK-MEL-28 melanoma, with T-47D breast and in the assay on NCI-H460 lung was above 100 µM in each case.
Regarding `O=C(c1ccc(N=Cc2ccccc2O)cc1)c1ccc(N=Cc2ccccc2O)cc1`, the TGI with K-562 leukemia, with M14 melanoma, in the assay with SK-MEL-5 melanoma, in the assay on SK-OV-3 ovarian, with UACC-62 melanoma and in the assay with HL-60(TB) leukemia was above 100 µM in each case. Besides, the TGI with OVCAR-4 ovarian, in the assay on SK-MEL-28 melanoma, in the assay with T-47D breast and in the assay on NCI-H460 lung was above 100 µM in each case.
With `N#CC(NC12CC3CC(CC(C3)C1)C2)c1ccccc1C(F)(F)F` (centres undefined), the TGI with CCRF-CEM leukemia, in the assay with K-562 leukemia, in the assay with M14 melanoma, with SK-MEL-5 melanoma, in the assay on HL-60(TB) leukemia and in the assay with OVCAR-4 ovarian was above 100 µM in each case. In addition, the TGI in the assay with SK-MEL-28 melanoma and with NCI-H460 lung was above 100 µM in each case.
Turning to `CC1NC(=O)CC(c2ccccc2)N(N=O)C1c1ccccc1` (centres undefined), the TGI in the assay on CCRF-CEM leukemia was 71.6 µM; with K-562 leukemia it was above 88.5 µM; in the assay on SK-MEL-5 melanoma, above 100 µM; in the assay with SK-OV-3 ovarian it was 62.6 µM; with UACC-62 melanoma, above 100 µM; in the assay with HL-60(TB) leukemia it was above 67.2 µM. Also, the TGI in the assay on OVCAR-4 ovarian was above 87.5 µM; in the assay with SK-MEL-28 melanoma it was above 100 µM; in the assay on NCI-H460 lung, above 90.2 µM.
In the case of `O=C1CCC(c2ccc(Cl)cc2)=NN1c1nsc2ccccc12`, the TGI with CCRF-CEM leukemia is 80 µM; in the assay with K-562 leukemia, 68 µM; with UACC-62 melanoma it was above 100 µM; with HL-60(TB) leukemia it was 46.3 µM; in the assay with OVCAR-4 ovarian, above 100 µM; with SK-MEL-28 melanoma, above 100 µM. Also, the TGI with NCI-H460 lung is above 100 µM.
For the compound `CC(=O)OC(/C=C/c1ccccc1)=C(OC(C)C)/C1=C(\c2ccccc2)SCCCSC1=O`, the TGI in the assay on CCRF-CEM leukemia, in the assay on K-562 leukemia, in the assay on M14 melanoma, in the assay with SK-MEL-5 melanoma, in the assay on SK-OV-3 ovarian and in the assay with UACC-62 melanoma was above 100 µM in each case. For the same compound, the TGI with HL-60(TB) leukemia, with OVCAR-4 ovarian, in the assay with SK-MEL-28 melanoma and with NCI-H460 lung was above 100 µM each time.
As for `NN/C(=N\S(=O)(=O)c1cc2ccccc2s1)Nc1ccc(Cl)cc1`, the TGI in the assay on K-562 leukemia was above 100 µM; with M14 melanoma, 37.9 µM; in the assay on SK-MEL-5 melanoma, 31.8 µM; in the assay on SK-OV-3 ovarian, above 100 µM; in the assay on UACC-62 melanoma, 35.5 µM; in the assay with HL-60(TB) leukemia it was 48 µM. For the same compound, the TGI stood at 38.5 µM in the assay on OVCAR-4 ovarian, 75 µM with SK-MEL-28 melanoma, 37.8 µM in the assay with T-47D breast and 39.6 µM with NCI-H460 lung.
For the compound `O=P(Nc1ccc(Cl)cc1)(Oc1ccccc1)N(CCCl)CCCl` (centres undefined), the TGI in the assay on CCRF-CEM leukemia, in the assay with K-562 leukemia, in the assay on M14 melanoma, with SK-MEL-5 melanoma, with SK-OV-3 ovarian and in the assay on UACC-62 melanoma was above 100 µM throughout. In addition, the TGI in the assay with OVCAR-4 ovarian and in the assay with SK-MEL-28 melanoma was above 100 µM in each case.
As for `COc1cc(/C=C(\C#N)C(N)=O)cc(Br)c1O`, the TGI with CCRF-CEM leukemia, in the assay with K-562 leukemia, in the assay on SK-MEL-5 melanoma, with SK-OV-3 ovarian, in the assay on UACC-62 melanoma and in the assay on HL-60(TB) leukemia was above 100 µM throughout. Also, the TGI in the assay on OVCAR-4 ovarian, in the assay on SK-MEL-28 melanoma and in the assay with NCI-H460 lung was above 100 µM each time. For the same compound, the GI50 with K-562 leukemia was 32.1 µM and 43.2 µM; in the assay with UACC-62 melanoma it was 35.9 µM and > 100 µM; with HL-60(TB) leukemia it was 83.8 µM and 59.8 µM.
